Results published in patent publication US20080058324A1, “Alpha-Keto Carbonyl Calpain Inhibitors” (SANTHERA PHARMACEUTICALS (SCHWEIZ) AG, priority 2004, published 2008).

Experiments:
human μ-calpain = target: T1, human μ-calpain (Homo sapiens, UniProt P07384); test: Enzymatic Calpain Inhibition Assay; type: biochemical; conditions: read-out: Calp I IC50
T1 construct: purchased Calbiochem
T1 sequence (P07384 1-714): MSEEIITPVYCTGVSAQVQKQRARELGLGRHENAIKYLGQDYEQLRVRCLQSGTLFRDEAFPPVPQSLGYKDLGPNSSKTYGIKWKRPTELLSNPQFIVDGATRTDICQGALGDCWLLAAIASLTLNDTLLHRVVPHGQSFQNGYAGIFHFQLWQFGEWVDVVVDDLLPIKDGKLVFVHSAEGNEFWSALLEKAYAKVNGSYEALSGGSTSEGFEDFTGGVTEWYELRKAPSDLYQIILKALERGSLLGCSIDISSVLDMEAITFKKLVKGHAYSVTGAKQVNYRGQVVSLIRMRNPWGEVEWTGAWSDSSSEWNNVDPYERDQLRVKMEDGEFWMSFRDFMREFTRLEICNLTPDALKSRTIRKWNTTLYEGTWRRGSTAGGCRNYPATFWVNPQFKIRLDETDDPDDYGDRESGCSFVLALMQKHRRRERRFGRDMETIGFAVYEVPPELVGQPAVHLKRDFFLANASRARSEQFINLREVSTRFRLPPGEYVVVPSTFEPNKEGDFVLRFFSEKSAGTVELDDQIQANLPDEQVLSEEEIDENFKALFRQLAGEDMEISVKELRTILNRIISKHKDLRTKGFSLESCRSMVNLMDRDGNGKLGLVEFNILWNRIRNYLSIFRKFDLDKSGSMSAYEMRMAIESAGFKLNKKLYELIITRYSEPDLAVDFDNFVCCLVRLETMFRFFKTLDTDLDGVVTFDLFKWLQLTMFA
T1 sequence (P04632 1-268 partner): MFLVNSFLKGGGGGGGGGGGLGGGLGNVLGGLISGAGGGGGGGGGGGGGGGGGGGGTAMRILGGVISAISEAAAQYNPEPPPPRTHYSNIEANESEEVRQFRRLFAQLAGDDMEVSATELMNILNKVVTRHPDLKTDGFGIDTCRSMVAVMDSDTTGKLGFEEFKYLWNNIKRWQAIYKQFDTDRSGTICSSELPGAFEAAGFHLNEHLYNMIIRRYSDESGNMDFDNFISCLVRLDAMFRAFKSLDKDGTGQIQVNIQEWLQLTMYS
Protocol: The Ki value was also determined in some cases. These criteria were used to measure the inhibitory effect of the compounds (I) on calpain I, calpain II and cathepsin B.
The inhibitory properties of calpain inhibitors are tested in 100 μl of a buffer containing 100 mM imidazole pH 7.5, 5 mM L-Cystein-HCl, 5 mM CaCl2, 250 μM of the calpain fluorogenic substrate Suc-Leu-Tyr-AMC (Sigma) (Sasaki et al., J. Biol. Chem., 1984, 259, 12489-12949) dissolved in 2.5 μl DMSO and 0.5 μg of human μ-calpain (Calbiochem). The inhibitors dissolved in 1 μl DMSO are added to the reaction buffer. The fluorescence of the cleavage product 7-amino-4-methylcoumarin (AMC) is followed in a SPECTRAmax GEMINI XS (Molecular Device) fluorimeter at λex=360 nm and λem=440 nm at 30° C. during 30 min at intervals of 30 sec in 96-well plates (Greiner). The initial reaction velocity at different inhibitor concentrations is plotted against the inhibitor concentration and the IC50 values determined graphically.

[1] = system: cellular calpains in C2C12 myoblasts; test: Calpain Inhibition Assay in C2C12 Myoblasts; type: cell-based; conditions: read-out: Calp I IC50 Myoblast
Protocol: This assay is aimed at monitoring the ability of the substance to inhibit cellular calpains. C2C12 myoblasts are grown in 96-well plates in growth medium (DMEM, 20% foetal calf serum) until they reach confluency. The growth medium is then replaced by fusion medium (DMEM, 5% horse serum). 24 hours later the fusion medium is replaced by fusion medium containing the test substances dissolved in 1 μl DMSO. After 2 hours of incubation at 37° C. the cells are loaded with the calpain fluorogenic substrate Suc-Leu-Tyr-AMC at 400 μM in 50 μl of a reaction buffer containing 135 mM NaCl; 5 mM KCl; 4 mM CaCl2; 1 mM MgCl2; 10 mM Glucose; 10 mM HEPES pH 7.25 for 20 min at room temperature. The calcium influx, necessary to activate the cellular calpains, is evoked by the addition of 50 μl reaction buffer containing 20 μM of the calcium ionophore Br-A-23187 (Molecular Probes). The fluorescence of the cleavage product AMC is measured as described above during 60 min at 37° C. at intervals of 1 min. The IC50 values are determined as described above. Comparison of the IC50 determined in the enzymatic calpain inhibition assay to the IC50 determined in the C2C12 myoblasts calpain inhibiton assay, allows to evaluate the cellular uptake or the membrane permeability of the substance.

20S Proteasome = target: T2, 20S Proteasome (Oryctolagus cuniculus, UniProt G1T4Q9); test: 20S Proteasome Assay; type: biochemical, Rabbit; conditions: read-out: 20S Prot IC50
T2 sequence (G1T4Q9 60-263): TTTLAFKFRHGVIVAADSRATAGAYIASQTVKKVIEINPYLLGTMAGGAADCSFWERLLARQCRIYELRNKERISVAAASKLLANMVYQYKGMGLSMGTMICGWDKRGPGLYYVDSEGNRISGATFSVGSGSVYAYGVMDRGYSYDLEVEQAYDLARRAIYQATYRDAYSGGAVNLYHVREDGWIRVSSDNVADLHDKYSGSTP
Protocol: 25 μl of a reaction buffer containing 400 μM of the fluorogenic substrate Suc-Leu-Leu-Val-Tyr-AMC (Bachem) are dispensed per well of a white microtiter plate. Test compounds dissolved in 0.5 μl DMSO are added. To start the reaction; 25 μl of reaction buffer containing 35 ng of enzyme (20S Proteasome, Rabbit, Calbiochem) are added. The increase in fluorescence (excitation at 360 nm; emission at 440 nm) is measured over 30 min at 30° C. at 30″. The IC50's are then determined from the slopes.

[2] = system: experimental muscular dystrophy in hamster; conditions: Journal of Pharmacobiodynamics, 1987, 10, 678; cited from earlier work

Row | IC50 (human μ-calpain) [µM] | IC50 [1] [µM] | IC50 (20S Proteasome) [µM] | melting point [°C] | SMILES | life-prolonging effect [2]
1 | 0.024 | 0.02 | 0.042 | 244 to 246 | CCNC(=O)C(=O)C(Cc1ccc(Cl)cc1)NC(=O)C(NC(=O)C(Cc1ccccc1)NC(=O)CCc1cccs1)C(C)C (centres unmarked) [Example 3] | –
2 | – | – | – | – | CCOC(=O)[C@H]1O[C@@H]1C(=O)N[C@@H](CC(C)C)C(=O)NCCC(C)C [Example E-64-d] | life-prolonging effect
